The results in this text go back to PubChem BioAssay (NCI).

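Each compound was tested at five concentrations against cells in 96-well plates for 48 hours. GI50: concentration for 50% inhibition of growth. At the TGI there is no net growth.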

The first test concerns SF-268 CNS. Nature of the test: inhibition of tumour cell growth, NCI panel, 48 h.
`Oc1cn(-c2ccc(Cl)cc2)nc1-c1n[nH]c(=S)n1C1CCCCC1`: the GI50 is 13.7 µM and the TGI is greater than 100 µM.

Consider `O=C(/C=C/c1cc(CN2CCOCC2)c(O)c2ncccc12)c1cc(CN2CCOCC2)c(O)c2ncccc12`, for which the GI50 is 0.0469 µM and the TGI was greater than 100 µM.

Take `[Au+].[Au+].[Au+].[c-]1nccn1Cc1ccccc1.[c-]1nccn1Cc1ccccc1.[c-]1nccn1Cc1ccccc1`: the GI50 was 3.35 µM and the TGI came out at 15.3 µM.

With `Cn1cc(C2=C(c3cn(CCCCCN)c4ccccc34)C(=O)NC2=O)c2ccccc21`, the GI50 was 12.5 µM and the TGI is greater than 25 µM.

With `C=C1C(=O)O[C@H]2[C@H]1CC/C(COC(=O)c1ccc(Cl)nc1)=C\CC[C@@]1(C)O[C@@H]21`, the GI50 is 2.62 µM and the TGI turned out to be 9.49 µM.

`Cc1cc[c-]cc1.Fc1c[c-]c(-c2ccccn2)c(F)c1.[Pt+2].c1ccc(P(C[PH+](c2ccccc2)c2ccccc2)c2ccccc2)cc1`: the GI50 was 2.9 µM and the TGI was 13.5 µM.

In the case of `COc1cc2ncn(-c3cc(OCCc4ccccc4)c(C(N)=O)s3)c2cc1OC`, the GI50 is greater than 25 µM and the TGI is greater than 25 µM.

As to `CCCCC1(CN2CCOCC2)S/C(=N/c2nc(CC(=O)OCC)cs2)NC1=O` (stereo not given), the GI50 is 37.6 µM and the TGI is greater than 100 µM.

Consider `COc1ccc(OC)c2c(/C=C/c3ccc(N(C)C)cc3)ccnc12`, for which the TGI is greater than 10 µM.

The subject of the next test is SF-295 CNS. The test can be described thus: inhibition of tumour cell growth, NCI panel, 48 h.
In the case of `Oc1cn(-c2ccc(Cl)cc2)nc1-c1n[nH]c(=S)n1C1CCCCC1`, the GI50 is less than 0.0447 µM and the TGI was 0.479 µM.

Take `O=C(/C=C/c1cc(CN2CCOCC2)c(O)c2ncccc12)c1cc(CN2CCOCC2)c(O)c2ncccc12`: the GI50 is 0.0529 µM and the TGI was greater than 36.4 µM.

For `[Au+].[Au+].[Au+].[c-]1nccn1Cc1ccccc1.[c-]1nccn1Cc1ccccc1.[c-]1nccn1Cc1ccccc1`, the GI50 is 10.5 µM and the TGI turned out to be 40.2 µM.

For the compound `Cn1cc(C2=C(c3cn(CCCCCN)c4ccccc34)C(=O)NC2=O)c2ccccc21`, the GI50 is 9.37 µM and the TGI is greater than 20.1 µM.

Consider `C=C1C(=O)O[C@H]2[C@H]1CC/C(COC(=O)c1ccc(Cl)nc1)=C\CC[C@@]1(C)O[C@@H]21`, for which the GI50 was 10.9 µM and the TGI turned out to be 22.9 µM.

Take `Cc1cc[c-]cc1.Fc1c[c-]c(-c2ccccn2)c(F)c1.[Pt+2].c1ccc(P(C[PH+](c2ccccc2)c2ccccc2)c2ccccc2)cc1`: the GI50 was 2.56 µM and the TGI was 10.2 µM.

In the case of `COc1cc2ncn(-c3cc(OCCc4ccccc4)c(C(N)=O)s3)c2cc1OC`, the GI50 was greater than 25 µM and the TGI was greater than 25 µM.

Turning to `CCCCC1(CN2CCOCC2)S/C(=N/c2nc(CC(=O)OCC)cs2)NC1=O` (stereo not given), the GI50 was 35.3 µM and the TGI was greater than 100 µM.

In turn, `COc1ccc(OC)c2c(/C=C/c3ccc(N(C)C)cc3)ccnc12` gave a TGI greater than 10 µM.

A further test relates to SK-MEL-28 melanoma. Nature of the test: inhibition of tumour cell growth, NCI panel, 48 h.
In the case of `Oc1cn(-c2ccc(Cl)cc2)nc1-c1n[nH]c(=S)n1C1CCCCC1`, the GI50 was 0.639 µM and the TGI was greater than 100 µM.

For `O=C(/C=C/c1cc(CN2CCOCC2)c(O)c2ncccc12)c1cc(CN2CCOCC2)c(O)c2ncccc12`, the GI50 was 0.594 µM and the TGI was greater than 100 µM.

For the compound `[Au+].[Au+].[Au+].[c-]1nccn1Cc1ccccc1.[c-]1nccn1Cc1ccccc1.[c-]1nccn1Cc1ccccc1`, the GI50 is 2.71 µM and the TGI amounted to 6.15 µM.

`Cn1cc(C2=C(c3cn(CCCCCN)c4ccccc34)C(=O)NC2=O)c2ccccc21`: the GI50 was 12.7 µM and the TGI was greater than 25 µM.

In the case of `C=C1C(=O)O[C@H]2[C@H]1CC/C(COC(=O)c1ccc(Cl)nc1)=C\CC[C@@]1(C)O[C@@H]21`, the GI50 is 1.94 µM and the TGI worked out at 4.9 µM.

For the compound `Cc1cc[c-]cc1.Fc1c[c-]c(-c2ccccn2)c(F)c1.[Pt+2].c1ccc(P(C[PH+](c2ccccc2)c2ccccc2)c2ccccc2)cc1`, the GI50 is 2.86 µM and the TGI was 10.3 µM.

As for `COc1cc2ncn(-c3cc(OCCc4ccccc4)c(C(N)=O)s3)c2cc1OC`, the GI50 is greater than 25 µM and the TGI is greater than 25 µM.

For the compound `CCCCC1(CN2CCOCC2)S/C(=N/c2nc(CC(=O)OCC)cs2)NC1=O` (stereo not given), the GI50 was 38.4 µM and the TGI is greater than 100 µM.

The compound `COc1ccc(OC)c2c(/C=C/c3ccc(N(C)C)cc3)ccnc12` had a TGI greater than 10 µM.

The test system of a further test is SK-MEL-5 melanoma. The test can be described thus: inhibition of tumour cell growth, NCI panel, 48 h.
Regarding `Oc1cn(-c2ccc(Cl)cc2)nc1-c1n[nH]c(=S)n1C1CCCCC1`, the GI50 was 0.25 µM and the TGI was determined as 12.3 µM.

On to `O=C(/C=C/c1cc(CN2CCOCC2)c(O)c2ncccc12)c1cc(CN2CCOCC2)c(O)c2ncccc12`, for which the GI50 is 0.0237 µM and the TGI was found to be 0.0607 µM.

Consider `[Au+].[Au+].[Au+].[c-]1nccn1Cc1ccccc1.[c-]1nccn1Cc1ccccc1.[c-]1nccn1Cc1ccccc1`, for which the GI50 is 2.93 µM and the TGI came to 6.15 µM.

For the compound `Cn1cc(C2=C(c3cn(CCCCCN)c4ccccc34)C(=O)NC2=O)c2ccccc21`, the GI50 was 7.46 µM and the TGI is greater than 19.7 µM.

In the case of `C=C1C(=O)O[C@H]2[C@H]1CC/C(COC(=O)c1ccc(Cl)nc1)=C\CC[C@@]1(C)O[C@@H]21`, the GI50 was 3.23 µM and the TGI came out at 11.1 µM.

Regarding `Cc1cc[c-]cc1.Fc1c[c-]c(-c2ccccn2)c(F)c1.[Pt+2].c1ccc(P(C[PH+](c2ccccc2)c2ccccc2)c2ccccc2)cc1`, the GI50 was 1.66 µM and the TGI was found to be 3.05 µM.

Take `COc1cc2ncn(-c3cc(OCCc4ccccc4)c(C(N)=O)s3)c2cc1OC`: the GI50 is 11.3 µM and the TGI was greater than 25 µM.

Take `CCCCC1(CN2CCOCC2)S/C(=N/c2nc(CC(=O)OCC)cs2)NC1=O` (stereo not given): the GI50 was 24.2 µM and the TGI worked out at 75.2 µM.

Turning to `COc1ccc(OC)c2c(/C=C/c3ccc(N(C)C)cc3)ccnc12`, the TGI was greater than 10 µM.

For another test, the system named is TK-10 renal. Nature of the test: inhibition of tumour cell growth, NCI panel, 48 h.
For the compound `Oc1cn(-c2ccc(Cl)cc2)nc1-c1n[nH]c(=S)n1C1CCCCC1`, the GI50 is 0.807 µM and the TGI was 34.1 µM.

Turning to `O=C(/C=C/c1cc(CN2CCOCC2)c(O)c2ncccc12)c1cc(CN2CCOCC2)c(O)c2ncccc12`, the GI50 is 0.0318 µM and the TGI was greater than 100 µM.

For the compound `[Au+].[Au+].[Au+].[c-]1nccn1Cc1ccccc1.[c-]1nccn1Cc1ccccc1.[c-]1nccn1Cc1ccccc1`, the GI50 was 11.1 µM and the TGI came to 29.6 µM.

Regarding `Cn1cc(C2=C(c3cn(CCCCCN)c4ccccc34)C(=O)NC2=O)c2ccccc21`, the GI50 was 10.6 µM and the TGI was greater than 25 µM.

For the compound `C=C1C(=O)O[C@H]2[C@H]1CC/C(COC(=O)c1ccc(Cl)nc1)=C\CC[C@@]1(C)O[C@@H]21`, the GI50 is 2.86 µM and the TGI came out at 6.77 µM.

For the compound `Cc1cc[c-]cc1.Fc1c[c-]c(-c2ccccn2)c(F)c1.[Pt+2].c1ccc(P(C[PH+](c2ccccc2)c2ccccc2)c2ccccc2)cc1`, the GI50 is 2.93 µM and the TGI worked out at 14.8 µM.

With `COc1cc2ncn(-c3cc(OCCc4ccccc4)c(C(N)=O)s3)c2cc1OC`, the GI50 was greater than 17.2 µM and the TGI is greater than 25 µM.

Consider `CCCCC1(CN2CCOCC2)S/C(=N/c2nc(CC(=O)OCC)cs2)NC1=O` (stereo not given), for which the GI50 was 31.7 µM and the TGI stood at 99.1 µM.

For the compound `COc1ccc(OC)c2c(/C=C/c3ccc(N(C)C)cc3)ccnc12`, the TGI is greater than 10 µM.
